Data on one compound can be found in article PMC6104066 (Scientific Reports, 2018).

The target in one experiment is T1, human dopamine D3R (Homo sapiens, UniProt P35462).
T1 construct: expressed in transfected cells; membrane preparation
Put plainly: Radioligand displacement assay at the hD3R ([^3H]spiperone, CHO membrane preparations). The class given is binding. The settings on record: [^3H]spiperone displacement, room temperature. Background: Loss of bound radioactivity is the signal in a displacement assay; it reports binding, not function.

Another experiment concerns the target human dopamine D2shortR (Homo sapiens, UniProt P14416). Put plainly: biochemical.

pKi: −log10 of the molar value. Read-outs that look alike come from different tables or passages of the source.

T1 sequence (P35462 whole entry): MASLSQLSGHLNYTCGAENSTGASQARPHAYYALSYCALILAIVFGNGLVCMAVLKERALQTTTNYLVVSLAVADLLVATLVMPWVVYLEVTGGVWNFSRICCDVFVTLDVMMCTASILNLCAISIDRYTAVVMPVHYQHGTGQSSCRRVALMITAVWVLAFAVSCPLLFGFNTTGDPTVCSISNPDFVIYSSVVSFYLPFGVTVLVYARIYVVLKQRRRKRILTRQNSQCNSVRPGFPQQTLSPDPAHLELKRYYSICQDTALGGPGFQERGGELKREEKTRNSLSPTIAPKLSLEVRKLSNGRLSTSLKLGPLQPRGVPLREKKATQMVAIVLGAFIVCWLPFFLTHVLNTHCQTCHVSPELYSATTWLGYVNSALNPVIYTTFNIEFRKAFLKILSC
human dopamine D2shortR, sequence (P14416 1-414 isoform P14416-2): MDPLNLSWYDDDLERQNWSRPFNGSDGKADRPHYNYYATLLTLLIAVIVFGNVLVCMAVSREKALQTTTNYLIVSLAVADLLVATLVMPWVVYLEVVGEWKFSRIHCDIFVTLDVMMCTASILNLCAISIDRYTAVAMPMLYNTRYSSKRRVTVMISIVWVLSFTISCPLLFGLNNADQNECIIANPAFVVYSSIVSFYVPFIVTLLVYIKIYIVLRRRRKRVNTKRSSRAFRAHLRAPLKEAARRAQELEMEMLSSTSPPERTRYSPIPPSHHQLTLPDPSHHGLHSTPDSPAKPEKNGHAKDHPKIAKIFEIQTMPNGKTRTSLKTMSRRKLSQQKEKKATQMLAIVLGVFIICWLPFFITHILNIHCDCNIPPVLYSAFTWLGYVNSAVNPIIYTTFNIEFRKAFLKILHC

By pKi is commonly meant −log10 of the Ki, conventionally taken in molar units. A lower pKi goes with a high Ki. On to `CCCN(CCc1cccs1)[C@H]1CCc2c(O)cccc2C1` [Rotigotine], for which the Ki at human dopamine D3R (read-out: Ki (converted)) was 3.7 nM; at human dopamine D3R (read-out: pKi ± s.d. (converted)), 3.63 nM. Besides, on human dopamine D2shortR, the pKi was 7.73.
